Measured values reported in patent US20240207427A1, “SELECTIVE DRUG RELEASE FROM INTERNALIZED CONJUGATES OF BIOLOGICALLY ACTIVE COMPOUNDS” (priority 2021, published 2024).
Where two headings read alike, the source gives them in different places.

Columns and labels:
Format in all cases: cell-based
[1] = system: B-lymphocyte cancer cells (SU-DHL4); test: In vitro potency (CellTiter-Glo, 96 h), SU-DHL-4; conditions: Homo sapiens, SU-DHL-4, 96 h, CellTiter-Glo after 96 h exposure
How it was run: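 Growth inhibition after 96 h at 37 °C with test article, measured by luminescence; cells in RPMI 1640, 20% FBS.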

melanoma cells (A2058) = test: In vitro potency (CellTiter-Glo, 96 h), A2058; conditions: Homo sapiens, A2058, 96 h, read-out: IC50 (nmol/L) A2058
How it was run: (§1)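 Antibody-drug conjugates, prepared as dilution series in culture medium, were added to cells seeded a day earlier in RPMI 1640 supplemented with 20% FBS. After four days at 37 °C, luminescence measured growth inhibition.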

Ls174T cells = test: In vitro potency (CellTiter-Glo, 96 h), Ls174T; conditions: Homo sapiens, LS174T, CellTiter-Glo after 96 h exposure
How it was run: as §1

[2] = system: Hodgkin's lymphoma cells (L540cy); test: In vitro potency (CellTiter-Glo, 96 h), L540cy
How it was run: (§2)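 IC50 (ng/mL or nmol/L) derived from CellTiter-Glo luminescence after 96 h exposure at 37 °C to serial dilutions of ADC or CPT free drug. Log-phase cells had been plated 24 h beforehand in RPMI 1640 containing 20% FBS.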

[3] = system: non-small-cell lung cancer cells (Calu1); test: In vitro potency (CellTiter-Glo, 96 h), Calu1; conditions: Homo sapiens, Calu-1, 96 h, read-out: IC50 (nmol/L) Calu1
How it was run: as §1

[4] = system: anaplastic large cell lymphoma cells (DEL); test: In vitro potency (CellTiter-Glo, 96 h), DEL
How it was run: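 Four-day continuous exposure at 37 °C to serially diluted ADC or free camptothecin payload, in RPMI 1640 with 20% FBS after 24 h pre-plating. Luminescent signal gave IC50 (ng/mL; nmol/L).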

[5] = system: acute myeloid leukemia cells (MOLM-13); test: In vitro potency (CellTiter-Glo, 96 h), MOLM-13; conditions: Homo sapiens, MOLM-13, 96 h, CellTiter-Glo after 96 h exposure
How it was run: (§3)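 Cells in log-phase growth are plated in RPMI 1640/20% FBS for 24 h. Serially diluted conjugates are then added, and plates are kept at 37 °C for 4 days before ATP-based luminescence gives growth inhibition.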

[6] = system: anaplastic large cell lymphoma cells (DELBVR); test: In vitro potency (CellTiter-Glo, 96 h), DELBVR
How it was run: as §2

[7] = system: renal carcinoma cells (786-O); test: In vitro potency (CellTiter-Glo, 96 h), 786-O; conditions: Homo sapiens, 786-0, 96 h, CellTiter-Glo after 96 h exposure
How it was run: as §2

[8] = system: pancreatic cancer cells (BxPC3); test: In vitro potency (CellTiter-Glo, 96 h), BxPC3; conditions: Homo sapiens, BXPC-3, 96 h, CellTiter-Glo after 96 h exposure
How it was run: as §3

[9] = system: breast cancer cells (MDA-MB-231); test: In vitro potency (CellTiter-Glo, 96 h), MDA-MB-231; conditions: Homo sapiens, MDA-MB-231, 96 h, CellTiter-Glo after 96 h exposure
How it was run: as §2

[10] = system: anaplastic large cell lymphoma cells (Karpas299); test: In vitro potency (CellTiter-Glo, 96 h), Karpas299; conditions: Homo sapiens, KARPAS-299, 96 h, CellTiter-Glo after 96 h exposure
How it was run: as §2

[11] = read-out: IC50 (nmol/L) SU-DHL-4, CPT free drugs, Table 24
[12] = 96 h, read-out: IC50 (nmol/L) Ls174T, CPT free drugs, Table 24
[13] = read-out: IC50 (nmol/L) L540cy, CPT free drugs, Table 24, CellTiter-Glo after 96 h exposure
[14] = read-out: IC50 (nmol/L) DEL, CPT free drugs, Table 24, CellTiter-Glo after 96 h exposure
[15] = read-out: IC50 (nmol/L) MOLM-13, CPT free drugs, Table 24
[16] = read-out: IC50 (nmol/L) DELBVR, CPT free drugs, Table 24, CellTiter-Glo after 96 h exposure
[17] = read-out: IC50 (nmol/L) 786-O, CPT free drugs, Table 24
[18] = read-out: IC50 (nmol/L) BxPC3, CPT free drugs, Table 24
[19] = read-out: IC50 (nmol/L) MDAMB231, CPT free drugs, Table 24
[20] = read-out: IC50 (nmol/L) Karpas299, CPT free drugs, Table 24
[21] = CPT free drugs, Table 24, read-out: IC50 (nmol/L) SU-DHL-4
[22] = CPT free drugs, Table 24, CellTiter-Glo after 96 h exposure
[23] = CPT free drugs, Table 24, read-out: IC50 (nmol/L) Ls174T
[24] = CPT free drugs, Table 24, CellTiter-Glo after 96 h exposure, read-out: IC50 (nmol/L) L540cy
[25] = CPT free drugs, Table 24, CellTiter-Glo after 96 h exposure, read-out: IC50 (nmol/L) DEL
[26] = CPT free drugs, Table 24, read-out: IC50 (nmol/L) MOLM-13
[27] = CPT free drugs, Table 24, CellTiter-Glo after 96 h exposure, read-out: IC50 (nmol/L) DELBVR
[28] = CPT free drugs, Table 24, read-out: IC50 (nmol/L) 786-O
[29] = CPT free drugs, Table 24, read-out: IC50 (nmol/L) BxPC3
[30] = CPT free drugs, Table 24, read-out: IC50 (nmol/L) MDAMB231
[31] = CPT free drugs, Table 24, read-out: IC50 (nmol/L) Karpas299

Row | SMILES | IC50 [1, 21] | IC50 (melanoma cells (A2058); [22]) | IC50 (Ls174T cells; [23]) | IC50 [2, 24] | IC50 [3, 22] | IC50 [4, 25] | IC50 [5, 26] | IC50 [6, 27] | IC50 [7, 28] | IC50 [8, 29] | IC50 [9, 30] | IC50 [10, 31] | other results
1 | CC[C@@]1(O)C(=O)OCc2c1cc1n(c2=O)Cc2c-1nc1cc(F)c(C)c(Br)c1c2CN [Compound 2q, (S)-11-(aminomethyl)-10-bromo-4-ethyl-8-fluoro-4-hydroxy-9-methyl-1,12-dihydro-14H-pyrano[3′,4′:6,7]indolizino[1,2-b]quinoline-3,14(4H)-dione] | – | – | – | – | – | – | – | – | – | – | – | – | IC50 [1, 11]: 1.5 nmol/L; IC50 (melanoma cells (A2058)): 4.8 nmol/L; IC50 (Ls174T cells; [12]): 5 nmol/L; IC50 [2, 13]: 4 nmol/L; IC50 [3]: 78 nmol/L; IC50 [4, 14]: 1 nmol/L; IC50 [5, 15]: 17.3 nmol/L; IC50 [6, 16]: 1 nmol/L; IC50 [7, 17]: 4 nmol/L; IC50 [8, 18]: 50.8 nmol/L; IC50 [9, 19]: 5.4 nmol/L; IC50 [10, 20]: 2.6 nmol/L
2 | CC[C@@]1(O)C(=O)OCc2c1cc1n(c2=O)Cc2c-1nc1ccc(SC(F)(F)F)cc1c2CN [Compound 2r] | 16 nmol/L | 11 nmol/L | 15.6 nmol/L | 15 nmol/L | 168 nmol/L | 4.4 nmol/L | 23 nmol/L | 8.4 nmol/L | 21 nmol/L | 75 nmol/L | 19 nmol/L | 37 nmol/L | –
3 | CC[C@@]1(O)C(=O)OCc2c1cc1n(c2=O)Cc2c-1nc1cc(F)c(C)c(C)c1c2CN [Compound 2s] | – | – | – | – | – | – | – | – | – | – | – | – | IC50 [1, 11]: 2 nmol/L; IC50 (melanoma cells (A2058)): 1 nmol/L; IC50 (Ls174T cells; [12]): 3.7 nmol/L; IC50 [2, 13]: 2 nmol/L; IC50 [3]: 22 nmol/L; IC50 [4, 14]: 1 nmol/L; IC50 [5, 15]: 18 nmol/L; IC50 [6, 16]: 1 nmol/L; IC50 [7, 17]: 3 nmol/L; IC50 [8, 18]: 7 nmol/L; IC50 [9, 19]: 2 nmol/L; IC50 [10, 20]: 2 nmol/L
4 | CC[C@@]1(O)C(=O)OCc2c1cc1n(c2=O)Cc2c-1nc1ccc3c(c1c2CN)OCC3 [Compound 2t] | 51 nmol/L | 39 nmol/L | 18 nmol/L | 43 nmol/L | ≥ 1000 nmol/L | 18 nmol/L | 179 nmol/L | 33 nmol/L | 101 nmol/L | 230 nmol/L | 73 nmol/L | 133 nmol/L | –
5 | CC[C@@]1(O)C(=O)OCc2c1cc1n(c2=O)Cc2c-1nc1ccc3c(c1c2CN)CCC3 [Compound 2u] | 4 nmol/L | 4 nmol/L | 5.3 nmol/L | 5 nmol/L | 61 nmol/L | 2 nmol/L | 48.3 nmol/L | 2 nmol/L | 10 nmol/L | 23 nmol/L | 6 nmol/L | 7 nmol/L | –
6 | CC[C@@]1(O)C(=O)OCc2c1cc1n(c2=O)Cc2c-1nc1cc3c(cc1c2CN)CCC3 [Compound 2v] | 33.8 nmol/L | 19 nmol/L | 17 nmol/L | 19 nmol/L | 247 nmol/L | 9 nmol/L | 350 nmol/L | 14 nmol/L | 33 nmol/L | 165 nmol/L | 34 nmol/L | 37 nmol/L | –
7 | CCc1cc2nc3c(c(CN)c2c(F)c1C)Cn1c-3cc2c(c1=O)COC(=O)[C@]2(O)CC [Compound 2w] | 958 nmol/L | 286 nmol/L | 843 nmol/L | 922 nmol/L | > 1000 nmol/L | 283 nmol/L | > 1000 nmol/L | 271 nmol/L | 649 nmol/L | > 1000 nmol/L | > 1000 nmol/L | > 1000 nmol/L | –
8 | CC[C@@]1(O)C(=O)OCc2c1cc1n(c2=O)Cc2c-1nc1cc(F)c(OC)c(F)c1c2CN [Compound 2x] | 7 nmol/L | 5 nmol/L | 16 nmol/L | 6 nmol/L | 27 nmol/L | 4 nmol/L | 19 nmol/L | 5 nmol/L | 18 nmol/L | 34 nmol/L | 91 nmol/L | 11 nmol/L | –
9 | CC[C@@]1(O)C(=O)OCc2c1cc1n(c2=O)Cc2c-1nc1cc(F)c(C)c(Cl)c1c2CN [Compound 2y] | – | – | – | – | – | – | – | – | – | – | – | – | IC50 [1, 11]: 1 nmol/L; IC50 (melanoma cells (A2058)): 1 nmol/L; IC50 (Ls174T cells; [12]): 3 nmol/L; IC50 [2, 13]: 1 nmol/L; IC50 [3]: 15 nmol/L; IC50 [4, 14]: 1 nmol/L; IC50 [5, 15]: 16 nmol/L; IC50 [6, 16]: 1 nmol/L; IC50 [7, 17]: 3 nmol/L; IC50 [8, 18]: 6 nmol/L; IC50 [9, 19]: 15 nmol/L; IC50 [10, 20]: 2 nmol/L
10 | CC[C@@]1(O)C(=O)OCc2c1cc1n(c2=O)Cc2c-1nc1cc(OC)c(C)c(F)c1c2CN [Compound 2z] | > 1000 nmol/L | > 1000 nmol/L | > 1000 nmol/L | > 1000 nmol/L | > 1000 nmol/L | > 1000 nmol/L | > 1000 nmol/L | > 1000 nmol/L | > 1000 nmol/L | > 1000 nmol/L | > 1000 nmol/L | > 1000 nmol/L | –
11 | CC[C@@]1(O)C(=O)OCc2c1cc1n(c2=O)Cc2c-1nc1ccc(O)cc1c2CN [Compound 3a] | 16.4 nmol/L | 16 nmol/L | 37.1 nmol/L | 18.2 nmol/L | 388 nmol/L | 10 nmol/L | 58 nmol/L | 14 nmol/L | 52.3 nmol/L | 135 nmol/L | 38.5 nmol/L | 59.4 nmol/L | –
12 | CC[C@@]1(O)C(=O)OCc2c1cc1n(c2=O)Cc2c-1nc1cc(F)c(O)cc1c2CN [Compound 3b] | > 1000 nmol/L | > 1000 nmol/L | > 1000 nmol/L | > 1000 nmol/L | > 1000 nmol/L | > 1000 nmol/L | > 1000 nmol/L | > 1000 nmol/L | > 1000 nmol/L | > 1000 nmol/L | > 1000 nmol/L | > 1000 nmol/L | –
13 | CC[C@@]1(O)C(=O)OCc2c1cc1n(c2=O)Cc2c-1nc1cc(F)c(O)c3c1c2CNC3 [Compound 3c] | > 1000 nmol/L | > 1000 nmol/L | > 1000 nmol/L | > 1000 nmol/L | > 1000 nmol/L | > 1000 nmol/L | > 1000 nmol/L | > 1000 nmol/L | > 1000 nmol/L | > 1000 nmol/L | > 1000 nmol/L | > 1000 nmol/L | –
14 | CC[C@@]1(O)C(=O)OCc2c1cc1n(c2=O)Cc2c-1nc1cc(F)c(O)c(F)c1c2CN [Compound 3d] | > 1000 nmol/L | > 1000 nmol/L | > 1000 nmol/L | > 1000 nmol/L | > 1000 nmol/L | 843 nmol/L | > 1000 nmol/L | > 1000 nmol/L | > 1000 nmol/L | > 1000 nmol/L | > 1000 nmol/L | > 1000 nmol/L | –
